# Target: T1, Or22a (Drosophila melanogaster, UniProt P81909)
# T1 construct: his-tag; made in house; host or cells: baculovirus-infected Sf9 cells
# T1 sequence (P81909 1-397): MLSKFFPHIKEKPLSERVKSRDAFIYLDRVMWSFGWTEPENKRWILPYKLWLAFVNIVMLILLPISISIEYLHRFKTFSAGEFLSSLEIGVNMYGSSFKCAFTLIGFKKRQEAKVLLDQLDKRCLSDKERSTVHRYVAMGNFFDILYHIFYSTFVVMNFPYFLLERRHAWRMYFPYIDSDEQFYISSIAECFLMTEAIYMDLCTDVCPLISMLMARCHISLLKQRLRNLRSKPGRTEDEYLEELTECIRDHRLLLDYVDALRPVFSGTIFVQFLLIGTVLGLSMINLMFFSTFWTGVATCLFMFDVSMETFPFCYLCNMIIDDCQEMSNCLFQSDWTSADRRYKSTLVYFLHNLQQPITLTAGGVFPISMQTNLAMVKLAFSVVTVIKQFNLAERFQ
# Assay: EIS sensor, Or22a liposomes on gold electrode
# Format: biochemical
# Description: Prior to their use, liposomes were defrosted on ice and then destabilized by incubating with 0.2% CHAPS for 15 min at room temperature. Then 200 μg of purified odorant receptor^28 was added to 1 mg of liposomes and rotated at 10 rpm for 1 h at room temperature. Excess detergent was removed by four additions of 25 mg of Bio-Beads SM-2 (Bio-Rad, USA) and incubation at 4° C. for 30 min, 2 h, overnight and a further 2 h respectively. The Bio-Beads were removed after each incubation period. The OrX or OrX/Orco integrated liposomes were pelleted by centrifugation at 100,000 g for 1 h, and were resuspended in 500 μL of rehydration buffer. Integration of OrXs and Orco into liposomes was assessed by density gradient ultracentrifugation (DGU) using Accudenz (Accurate Chemical & Scientific Corporation, USA). The integrated liposomes were brought to 40% Accudenz by the addition of an equal volume of 80% Accudenz solution, placed at the bottom of an ultra-centrifugation tube, and overlaid with 30% Accudenz solution, and DGU buffer (25 mM HEPES pH 7.5, 100 mM NaCl, 10% glycerol). The sample was then centrifuged at 100,000 g for 4 h at 4° C. Liposomes will float to the top of the gradient after Accudenz DGU due to their low density.
# 2 mM MHA was prepared by dissolving 1.36 μl of MHA in 5 ml ethanol (AR grade). The cleaned electrodes were immersed into MHA solution and incubated overnight. The next day, all the electrodes were washed with ethanol and deionised water thoroughly in order to remove the unreacted acid. A 2:1 mol:mol ratio of EDC:NHS (100 mM EDC, 50 mM NHS) was prepared in 2 ml PBS (pH=6.5) solution. Then, the electrodes were covered in 100 μl of this solution at 28° C. for an hour to activate the carboxylic (COOH) groups of the MHA.
# PBS solution was prepared by immersing one tablet of PBS in 200 ml of milli-Q water (according to manufacturers instructions) and filtered using 0.2-μm syringe filter. The pH of the prepared buffer solution was measured with a pH meter. OrX liposomes or OrX/Orco liposomes were diluted 100 fold in PBS buffer solution (pH=7.4) and the COOH-activated electrodes were incubated in that buffer solution at room temperature for one hour. Then, the electrodes were washed extensively with PBS buffer solution to wash out any unbound liposomes.
# PBS (pH=7.4) was used as an electrolyte to conduct electrochemical measurements. PBS buffer was degassed for about 30 minutes prior to electrochemical measurements. Odorant solutions of concentration ranging from 1 aM to 1 μM were prepared by sequential dilution in PBS solution containing 1% DMSO. OR immobilized electrodes were incubated in relevant odorant solution for ˜30 minutes each and washed gently with PBS before EIS measurements.
# EIS measurements were done in a 3 electrode cell containing Ag/AgCl (3 M NaCl, 0.209 V vs. SHE) reference electrode, coiled platinum wire as a counter electrode and the gold disk as a working electrode at a fixed voltage of −0.7 using PalmSens potentiostat. Degassed PBS was used as an electrolyte.
# EIS measurements were performed on gold electrodes functionalised with OrX liposomes (either Or10a or Or22a), OrX/Orco liposomes, or empty liposomes prior to and after target ligand or control ligand incubation with increasing concentrations (1 aM to 100 μM). Dose response curves were obtained by defining sensor response as −(ΔRp/R^op) versus log[C(Ligand)]. FIG. 4a presents the EIS response in terms of Nyquist plot for the Or10a liposome functionalized sensors when exposed to a solution containing one of the known target ligands of Or10a, methyl salicylate, at various concentrations. […] The dose response curve (FIG. 4b) was obtained by plotting the change in polarization resistance −(ΔRp/R^op) versus log[conc(Ligand)], as the sensor response. Here, Rp is the polarization resistance after Or10a liposome-target interaction and R^op is the polarization resistance before Or10a liposome-target interaction.
SMILES,"limit of detection (LOD) (EIS dose response, ligand 1 aM to 100 μM) [fM]","EC50 (Table 1, approximate) [pM]","Sensitivity limit (Table 1, * estimated visually from dose response graph)",Detection Range (Table 3),"EC50 (Table 3, fitted dose response) [pM]",sensor response to control ligand (EIS dose response)
CCCCCC(=O)OC [methyl hexanoate],1,~1,~10^−15 M*,10^−15 to 10^−5 M,1.1,
COC(=O)c1ccccc1O [methyl salicylate],,,,,,negligible response
